Test results reported in patent US10004701B2, “Methods and compositions for treating infection” (UNIVERSITY OF ROCHESTER, priority 2012, dated 2018).
Counter-ions that a name gives are not always drawn. Like-named read-outs stand apart in the source and are kept apart here.

Key:
Assay in all cases: AK assay 384-well format, Prestwick library screening
[1] = tested on: E. coli; assay type: cell-based, Escherichia coli; details: 50 μM final drug concentration; for fold induction at 50 µM: Escherichia coli, 3 h
[2] = tested on: E. cloacae; assay type: cell-based, Enterobacter cloacae; details: 50 μM final drug concentration; for fold induction at 50 µM: Enterobacter cloacae, 3 h
[3] = tested on: A. baumannii strain 98-37-09; assay type: cell-based, Acinetobacter baumannii; details: 50 μM final drug concentration; for fold induction at 50 µM: Acinetobacter baumannii, 983709, 3 h
[4] = tested on: K. pneumoniae; assay type: cell-based, Klebsiella pneumoniae; details: 50 μM final drug concentration; for fold induction at 50 µM: Klebsiella pneumoniae, 3 h
[5] = tested on: E. faecium; assay type: cell-based, Enterococcus faecium; details: 50 μM final drug concentration; for fold induction at 50 µM: Enterococcus faecium, 3 h
[6] = tested on: P. aeruginosa; assay type: cell-based, Pseudomonas aeruginosa; details: 50 μM final drug concentration; for fold induction at 50 µM: Pseudomonas aeruginosa, 3 h
[7] = tested on: S. aureus strain USA300-0114; assay type: cell-based, Staphylococcus aureus; details: 50 μM final drug concentration; for fold induction at 50 µM: Staphylococcus aureus, USA300, 3 h
[8] = planktonic, cutoff for positive 3-fold increase
[9] = planktonic, cutoff for positive 3-fold increase, read-out: AK-based Prestwick Library Screening Results, E. coli (fold increase in extracellular AK activity)
[10] = planktonic, cutoff for positive 3-fold increase, read-out: AK-based Prestwick Library Screening Results, E. cloacae (fold increase in extracellular AK activity)
[11] = planktonic, cutoff for positive 3-fold increase, read-out: AK-based Prestwick Library Screening Results, A. baumannii (fold increase in extracellular AK activity)
[12] = planktonic, cutoff for positive 3-fold increase, read-out: AK-based Prestwick Library Screening Results, K. pneumoniae (fold increase in extracellular AK activity)
[13] = planktonic, cutoff for positive 3-fold increase, read-out: AK-based Prestwick Library Screening Results, E. faecium (fold increase in extracellular AK activity)
[14] = planktonic, cutoff for positive 3-fold increase, read-out: AK-based Prestwick Library Screening Results, P. aeruginosa (fold increase in extracellular AK activity)
[15] = planktonic, cutoff for positive 3-fold increase, read-out: AK-based Prestwick Library Screening Results, S. aureus (fold increase in extracellular AK activity)
[16] = planktonic, cutoff for positive-scoring molecules 3-fold increase, read-out: AK-based Prestwick Library Screening Results, E. coli (fold increase in extracellular AK activity)
[17] = planktonic, cutoff for positive-scoring molecules 3-fold increase, read-out: AK-based Prestwick Library Screening Results, E. cloacae (fold increase in extracellular AK activity)
[18] = planktonic, cutoff for positive-scoring molecules 3-fold increase, read-out: AK-based Prestwick Library Screening Results, A. baumannii (fold increase in extracellular AK activity)
[19] = planktonic, cutoff for positive-scoring molecules 3-fold increase, read-out: AK-based Prestwick Library Screening Results, K. pneumoniae (fold increase in extracellular AK activity)
[20] = planktonic, cutoff for positive-scoring molecules 3-fold increase, read-out: AK-based Prestwick Library Screening Results, E. faecium (fold increase in extracellular AK activity)
[21] = planktonic, cutoff for positive-scoring molecules 3-fold increase, read-out: AK-based Prestwick Library Screening Results, P. aeruginosa (fold increase in extracellular AK activity)
[22] = planktonic, cutoff for positive-scoring molecules 3-fold increase, read-out: AK-based Prestwick Library Screening Results, S. aureus (fold increase in extracellular AK activity)

O=C1CCC(N2C(=O)c3ccccc3C2=O)C(=O)N1 (stereo not shown) [Thalidomide]
fold induction at 50 µM ([1]; 384-well format, cutoff for positive-scoring molecules 3-fold increase, read-out: AK-based Prestwick Library Screening Results, E. coli (increase in extracellular AK activity)): 1 | fold induction at 50 µM ([2]; 384-well format, cutoff for positive-scoring molecules 3-fold increase, read-out: AK-based Prestwick Library Screening Results, E. cloacae (increase in extracellular AK activity)): 1.1 | fold induction at 50 µM ([3]; 384-well format, cutoff for positive-scoring molecules 3-fold increase, read-out: AK-based Prestwick Library Screening Results, A. baumannii (increase in extracellular AK activity)): 0.9 | fold induction at 50 µM ([4]; 384-well format, cutoff for positive-scoring molecules 3-fold increase, read-out: AK-based Prestwick Library Screening Results, K. pneumoniae (increase in extracellular AK activity)): 0.8 | fold induction at 50 µM ([5]; 384-well format, cutoff for positive-scoring molecules 3-fold increase, read-out: AK-based Prestwick Library Screening Results, E. faecium (increase in extracellular AK activity)): 1 | fold induction at 50 µM ([6]; 384-well format, cutoff for positive-scoring molecules 3-fold increase, read-out: AK-based Prestwick Library Screening Results, P. aeruginosa (increase in extracellular AK activity)): 0.9 | fold induction at 50 µM ([7]; 384-well format, cutoff for positive-scoring molecules 3-fold increase, read-out: AK-based Prestwick Library Screening Results, S. aureus (increase in extracellular AK activity)): 1

(S)-(−)-Atenolol
AK-based Prestwick Library Screening Results, E. coli (fold increase in extracellular AK activity) [1, 8]: 1.2 | AK-based Prestwick Library Screening Results, E. cloacae (fold increase in extracellular AK activity) [2, 8]: 1.7 | AK-based Prestwick Library Screening Results, A. baumannii (fold increase in extracellular AK activity) [3, 8]: 1.1 | AK-based Prestwick Library Screening Results, K. pneumoniae (fold increase in extracellular AK activity) [4, 8]: 0.9 | AK-based Prestwick Library Screening Results, E. faecium (fold increase in extracellular AK activity) [5, 8]: 1.0 | AK-based Prestwick Library Screening Results, P. aeruginosa (fold increase in extracellular AK activity) [6, 8]: 1.1 | AK-based Prestwick Library Screening Results, S. aureus (fold increase in extracellular AK activity) [7, 8]: 1.2

C[C@H]1[C@H]2CC[C@H]3[C@@H]4CC=C5C[C@@H](N(C)C)CC[C@]5(C)[C@H]4CC[C@]23CN1C [Conessine]
fold induction at 50 µM [1, 9]: 1.5 | fold induction at 50 µM [2, 10]: 1.6 | fold induction at 50 µM [3, 11]: 1.4 | fold induction at 50 µM [4, 12]: 1.2 | fold induction at 50 µM [5, 13]: 1.1 | fold induction at 50 µM [6, 14]: 1.2 | fold induction at 50 µM [7, 15]: 1.2

CO/N=C(\C(=O)N[C@@H]1C(=O)N2C(C(=O)O)=C(COC(N)=O)CS[C@H]12)c1ccco1 [Cefuroxime sodium salt]
fold induction at 50 µM ([1]; cutoff for positive-scoring molecules 3-fold increase, read-out: AK-based Prestwick Library Screening Results, E. coli (fold increase in extracellular AK activity)): 12.1 | fold induction at 50 µM ([2]; cutoff for positive-scoring molecules 3-fold increase, read-out: AK-based Prestwick Library Screening Results, E. cloacae (fold increase in extracellular AK activity)): 1.6 | fold induction at 50 µM ([3]; cutoff for positive-scoring molecules 3-fold increase, read-out: AK-based Prestwick Library Screening Results, A. baumannii (fold increase in extracellular AK activity)): 1.4 | fold induction at 50 µM ([4]; cutoff for positive-scoring molecules 3-fold increase, read-out: AK-based Prestwick Library Screening Results, K. pneumoniae (fold increase in extracellular AK activity)): 2.4 | fold induction at 50 µM ([5]; cutoff for positive-scoring molecules 3-fold increase, read-out: AK-based Prestwick Library Screening Results, E. faecium (fold increase in extracellular AK activity)): 1 | fold induction at 50 µM ([6]; cutoff for positive-scoring molecules 3-fold increase, read-out: AK-based Prestwick Library Screening Results, P. aeruginosa (fold increase in extracellular AK activity)): 1.6 | fold induction at 50 µM ([7]; cutoff for positive-scoring molecules 3-fold increase, read-out: AK-based Prestwick Library Screening Results, S. aureus (fold increase in extracellular AK activity)): 3.4

CN1CCCN(C(c2ccccc2)c2ccc(Cl)cc2)CC1 (stereo not shown) [Homochlorcyclizine dihydrochloride]
fold induction at 50 µM ([1]; planktonic E. coli, 384-well, […], read-out: AK-based Prestwick Library Screening Results: E. coli (increase in extracellular AK activity)): 1.5 | fold induction at 50 µM ([2]; planktonic E. cloacae, 384-well, […], read-out: AK-based Prestwick Library Screening Results: E. cloacae (increase in extracellular AK activity)): 1.8 | fold induction at 50 µM ([3]; planktonic A. baumannii, 384-well, […], read-out: AK-based Prestwick Library Screening Results: A. baumannii (increase in extracellular AK activity)): 1.2 | fold induction at 50 µM ([4]; planktonic K. pneumoniae, 384-well, […], read-out: AK-based Prestwick Library Screening Results: K. pneumoniae (increase in extracellular AK activity)): 1.1 | fold induction at 50 µM ([5]; planktonic E. faecium, 384-well, […], read-out: AK-based Prestwick Library Screening Results: E. faecium (increase in extracellular AK activity)): 1.2 | fold induction at 50 µM ([6]; planktonic P. aeruginosa, 384-well, […], read-out: AK-based Prestwick Library Screening Results: P. aeruginosa (increase in extracellular AK activity)): 1.2 | fold induction at 50 µM ([7]; planktonic S. aureus, 384-well, […], read-out: AK-based Prestwick Library Screening Results: S. aureus (increase in extracellular AK activity)): 1

O=C(NCC1CCCCN1)c1cc(OCC(F)(F)F)ccc1OCC(F)(F)F (stereo not shown) [Flecainide acetate]
fold induction at 50 µM [1, 16]: 0.6 | fold induction at 50 µM [2, 17]: 0.7 | fold induction at 50 µM [3, 18]: 0.8 | fold induction at 50 µM [4, 19]: 0.6 | fold induction at 50 µM [5, 20]: 0.9 | fold induction at 50 µM [6, 21]: 0.6 | fold induction at 50 µM [7, 22]: 0.7

NS(=O)(=O)c1cc2c(cc1Cl)N=C(CSCc1ccccc1)NS2(=O)=O [Benzthiazide]
fold induction at 50 µM [1, 16]: 0.9 | fold induction at 50 µM [2, 17]: 1.1 | fold induction at 50 µM [3, 18]: 0.9 | fold induction at 50 µM [4, 19]: 0.8 | fold induction at 50 µM [5, 20]: 1.4 | fold induction at 50 µM [6, 21]: 0.9 | fold induction at 50 µM [7, 22]: 0.8

CC(=O)OCC1=C(C(=O)O)N2C(=O)[C@@H](N)[C@H]2SC1 [Cephalosporanic acid, 7-amino]
AK-based Prestwick Library Screening Results, E. coli (increase in extracellular AK activity) ([1]; planktonic E. coli, […]): 0.9 | AK-based Prestwick Library Screening Results, E. cloacae (increase in extracellular AK activity) ([2]; planktonic E. cloacae, […]): 0.8 | AK-based Prestwick Library Screening Results, A. baumannii (increase in extracellular AK activity) ([3]; planktonic A. baumannii, […]): 0.8 | AK-based Prestwick Library Screening Results, K. pneumoniae (increase in extracellular AK activity) ([4]; planktonic K. pneumoniae, […]): 0.7 | AK-based Prestwick Library Screening Results, E. faecium (increase in extracellular AK activity) ([5]; planktonic E. faecium, […]): 0.9 | AK-based Prestwick Library Screening Results, P. aeruginosa (increase in extracellular AK activity) ([6]; planktonic P. aeruginosa, […]): 0.8 | AK-based Prestwick Library Screening Results, S. aureus (increase in extracellular AK activity) ([7]; planktonic S. aureus, […]): 0.6

CN(C)Cc1c[nH]c2ccccc12 [Gramine]
fold induction at 50 µM [1, 9]: 1.2 | fold induction at 50 µM [2, 10]: 1.5 | fold induction at 50 µM [3, 11]: 1.3 | fold induction at 50 µM [4, 12]: 1 | fold induction at 50 µM [5, 13]: 1 | fold induction at 50 µM [6, 14]: 1.1 | fold induction at 50 µM [7, 15]: 1.3

CCCCC(CC)CN1CN(CC(CC)CCCC)CC(C)(N)C1 (stereo not shown) [Hexetidine]
fold induction at 50 µM [1, 9]: 1.5 | fold induction at 50 µM [2, 10]: 1.6 | fold induction at 50 µM [3, 11]: 3 | fold induction at 50 µM [4, 12]: 1.4 | fold induction at 50 µM [5, 13]: 1.1 | fold induction at 50 µM [6, 14]: 1.1 | fold induction at 50 µM [7, 15]: 1.2
